The results in this text go back to ChEMBL document CHEMBL1221341, “[17(20)E]- and [17(20)Z]-pregna-5,17(20)-dien-21-oylamides. Facile synthesis and primary evaluation for cancer cells proliferation” (Bioorg Med Chem Lett, 2010).

Molecules are shown by their SMILES. Calls of active or inactive are those of the source. No cut-off for these calls is given here.

What all share (type): functional, cell-based
For experiment [1], the system named is LNCaP. As to the kind of experiment: Antiproliferative activity against human LNCAP cells at 30 uM after 48 hrs by MTT assay.
Experiment [2] has as its system MCF7. As to the kind of experiment: Antiproliferative activity against human MCF7 cells at 30 uM after 48 hrs by MTT assay. Background: Tetrazolium dyes change colour on reduction, which living cells bring about.
Experiment [3] relates to MCF7. As to the kind of experiment: Antiproliferative activity against human MCF7 cells at 0.1 to 0.3 uM after 48 hrs by MTT assay.
For experiment [4], the system named is LNCaP. As to the kind of experiment: Antiproliferative activity against human LNCAP cells at 0.1 to 0.3 uM after 48 hrs by MTT assay.

Turning to `C[C@]12CC[C@H](O)CC1=CC[C@@H]1[C@@H]2CC[C@]2(C)/C(=C/C(N)=O)CC[C@@H]12`, the outcome in experiment [1] and in experiment [2] was Active. Also, the result in experiment [3] and in experiment [4] was inactive.
As for `C[C@]12CC[C@H](O)CC1=CC[C@@H]1[C@@H]2CC[C@]2(C)/C(=C/C(=O)N3CCCC3)CC[C@@H]12`, the result in experiment [4] was Active.
In the case of `C[C@]12CC[C@H](O)CC1=CC[C@@H]1[C@@H]2CC[C@]2(C)/C(=C\C(=O)N3CCCC3)CC[C@@H]12`, the result in experiment [3] was inactive.
For the compound `C[C@]12CC[C@H](O)CC1=CC[C@@H]1[C@@H]2CC[C@]2(C)/C(=C/C(=O)NCCO)CC[C@@H]12`, the result in experiment [1] and in experiment [2] was Active. For the same compound, the outcome in experiment [3] and in experiment [4] was inactive.
